Earlier results as cited in patent US9895311B2, “Foam-forming compositions and methods for delivering an active to a body cavity” (Pharmiva AB, priority 2014, dated 2018).

Tests used:
[1] = tested on: anaerobic bacteria involved in vaginal and urinary tube infections; settings: in 7 seconds, laboratory conditions (Block 1983)
several species = settings: even at low pH (Attassi, Servin 2010)

Compound: OO [hydrogen peroxide]
- log reduction [1]: 2 log
- Concentration required for inhibition (several species): ≥ 20 mM
